The subject of assay [1] is ATCC 700671 PRSP (S. pneumoniae). The experiment in a line: In vivo protection effects of Ph-SP. More on the design: species or system mice. The following applies: 5 animals. As to the method:
To assess the in vivo effect of Ph-SP, mice were injected with ATCC 700671 PRSP intraperitoneally, followed by intravenous injections of PH-SP or controls.
One hour after administration of the fatal dose of ATCC 700671 PRSP (10^5 CFU/ml), each mouse was injected through the tail vein with test agents at three dosages as described in Table 4.

In a further assay the test system is Acenetobactor (20). Briefly: In vitro antibacterial activity (MIC), clinical isolates. The class given is cell-based. Here is the method:
(§1) The following experiments were performed by Lab. of Pharmacology, National Sichuan antibiotic industril institute, Chengdu, Sichuan.
(§2) The following agents were used to test the in vitro activity of Ph-SA:
(§3) All the bacterial strains used in the experiments were clinical isolates collected from Sichuan and Beijing in 2002 and identified by West China Hospital, Sichuan University and Chongqing University of Medical Sciences with API system. The following strains were used in the experiments detailed below: Staphylococcus aureus 168 strains (MRSA 80 strains and MSSA 88 strains) Staphylococcus epidermidis 46 strains (MRSE 25 strains and MSSE 21 strains), Enterococcus 20 strains, and Acenetobactor 20 strains. Staphylococcus aureus ATCC25923, 29213 and BAA-42 were used as control strains. Bacterial strains were contacted with one of the above described compounds and MIC50, MIC90 and MICScope were determined.

The test system of a further assay is Enterococcus (20). Described as above. The class given is cell-based. Conditions: 20 Enterococcus clinical isolates. As to the method: as §1, §2, §3
Assay [2] has as its system Staphylococcus aureus MRSA strain (80). Described as above. Conditions: Staphylococcus aureus, MRSA. The format is cell-based. As to the method:
as §1, §2, §3

Assay [3] deals with Staphylococcus aureus MSSA strain (88). The description is as above. The following applies: Staphylococcus aureus, 88 MSSA clinical isolates. The format is cell-based. Here is the method: as §1, §2, §3
Assay [4] deals with Staphylococcus epidermidis MRSE strain (25). The assay is described as above. The class given is cell-based. The following applies: Staphylococcus epidermidis, MRSE. As to the method:
as §1, §2, §3

The subject of assay [5] is Staphylococcus epidermidis MSSE strain (21). The description is as above. The format is cell-based. The following applies: Staphylococcus epidermidis, 21 MSSE clinical isolates. As to the method: as §1, §2, §3
Assay [6] deals with S. aureus strain ATCC BAA-42 MRSA. Conditions: all agents 5 μg/ml.

In brackets after ≈: the same amount, converted by molar mass. A value given as a limit tells only on which side of the number the result lay.

Turning to cephalomycin, in assay [1] (5 mg/kg tail vein), the “Death distribution in hours 24 h” value was 3, the “Death distribution in hours 48 h” value stood at 1, the “Death distribution in hours 72 h” value came to 0 and the “Death distribution in hours 96 h” value stood at 0. In assay [1] (5 mg/kg tail vein), the “Death distribution in hours 120 h” value is given as 0, the “Death distribution in hours 144 h” value is on record as 0, the “Death distribution in hours 168 h” value is given as 0 and the “Number of Death” value stood at 4. In addition, in assay [1] (10 mg/kg tail vein), the “Death distribution in hours 24 h” value is 2, the “Death distribution in hours 48 h” value was 1, the “Death distribution in hours 72 h” value stood at 0 and the “Death distribution in hours 96 h” value was determined as 0. In assay [1] (10 mg/kg tail vein), the “Death distribution in hours 120 h” value came to 0, the “Death distribution in hours 144 h” value was determined as 0, the “Death distribution in hours 168 h” value is given as 0 and the “Number of Death” value amounted to 3.

As to `Cc1onc(-c2ccccc2)c1C(=O)N[C@@H]1C(=O)N2[C@@H]1SC(C)(C)[C@@H]2C(=O)O` [Oxacillin, oxacillin], the MIC50 against Acenetobactor (20) was greater than 128 µg/mL; in the assay with Enterococcus (20) (read-out: MIC50), 16 µg/mL (≈ 39.9 µM); in assay [2], greater than 128 µg/mL; in assay [3] (read-out: MIC50), 0.125 µg/mL (≈ 0.311 µM); in assay [4], 64 µg/mL (≈ 159 µM); in assay [5] (read-out: MIC50), 0.03 µg/mL (≈ 0.0747 µM). The MIC90 is greater than 128 µg/mL with Acenetobactor (20); greater than 128 µg/mL in the assay on Enterococcus (20) (read-out: MIC90); greater than 128 µg/mL in assay [2]; 0.125 µg/mL (≈ 0.311 µM) in assay [3] (read-out: MIC90); greater than 128 µg/mL in assay [4]; 0.25 µg/mL (≈ 0.623 µM) in assay [5] (read-out: MIC90). Further, the MIC is greater than 128 µg/mL in the assay with Acenetobactor (20) (read-out: MIC Scope), 0.5 to 128 µg/mL (≈ 1.25 to 319 µM) in assay [2] (read-out: MIC Scope), 0.015 to 0.25 µg/mL (≈ 0.0374 to 0.623 µM) in assay [3] (read-out: MIC Scope) and 0.015 to 0.25 µg/mL (≈ 0.0374 to 0.623 µM) in assay [5]. In addition, in assay [6], the inhibition of growth entry is reported as “did not inhibit the growth”.

B1: Ph-SE: Colicin Ia linked to the pheromone of S. epidermidis (protein)
chain: SDPVARGITNPGAESLGYDSDGHEIMAVASPIYVASNPPRVASPVFHGTPPAWSSFGNKTIWGGNEWVASPDSPTRSDIEKRDKEITAYKNTLSAQQKENENKRTEAGKRLSAAIAAREKDENTLKTLRAGNADAADITRQEFRLLQAELREYGFRTEIAGYDALRLHTESRMLFADADSLRISPREARSLIEQAEKRQKDAQNADKKAADMLAEYERRKGILDTRLSELEKNGGAALAVLDAQQARLLGQQTRNDRAISEARNKLSSVTESLNTARNALTRAEQQLTQQKNTPDGKTIVSPEKFPGRSSTNHSIVVSGDPRFAGTIKITTSAVIDNRANLNYLLSHSGLDYKRNILNDRNPVVTEDVEGDKKIYNAEVALAEWDKLRQRLLDARNKITSAESAVASNSARNNLSARTNEQKHANDALNALLKEKENIRNQLSGINQKIAEEKRKQDELKATKDAINFTTEFLKSVSEKYGAKAEQLAREMAGQAKGKKIRNVEEALKTYEKYRADINKKINAKDRAAIAAALESVKLSDISSNLNRFSRGLGYAGKFTSLADWITEFGKAVARGTENWRPLFVKTETIIAGNAATALVALALVFSILTGSALGIIGYGLLMAVTGALIDESLVEKANKFWGIDSVCASYF
modifications: Colicin Ia attached to Pheromone peptide from Staphylococcus epidermidis
As for B1, the inhibition of growth result in assay [6] was “better effects”.

B2: Ph-SAR1: the AgrDI pheromone of S. aureus linked to the N-terminus of Colicin Ia (protein)
chain: YSTCDFIMSDPVRITNPGAESLGYDSDGHEIMAVDIYVNPPRVDVFHGTPPAWSSFGNKTIWGGNEWVDDSPTRSDIEKRDKEITAYKNTLSAQQKENENKRTEAGKRLSAAIAAREKDENTLKTLRAGNADAADITRQEFRLLQAELREYGFRTEIAGYDALRLHTESRMLFADADSLRISPREARSLIEQAEKRQKDAQNADKKAADMLAEYERRKGILDTRLSELEKNGGAALAVLDAQQARLLGQQTRNDRAISEARNKLSSVTESLNTARNALTRAEQQLTQQKNTPDGKTIVSPEKFPGRSSTNHSIVVSGDPRFAGTIKITTSAVIDNRANLNYLLSHSGLDYKRNILNDRNPVVTEDVEGDKKIYNAEVAEWDKLRQRLLDARNKITSAESAVNSARNNLSARTNEQKHANDALNALLKEKENIRNQLSGINQKIAEEKRKQDELKATKDAINFTTEFLKSVSEKYGAKAEQLAREMAGQAKGKKIRNVEEALKTYEKYRADINKKINAKDRAAIAAALESVKLSDISSNLNRFSRGLGYAGKFTSLADWITEFGKAVRTENWRPLFVKTETIIAGNAATALVALVFSILTGSALGIIGYGLLMAVTGALIDESLVEKANKFWGI
modifications: Pheromone peptide from Staphylococcus aureus AgrDI attached to Colicin Ia
For the molecule B2, in assay [6], the inhibition of growth result was “did not inhibit the growth”.

B3: Ph-SA2: Colicin Ia linked to the AgrDII pheromone of S. aureus (protein)
chain: SDPVRITNPGAESLGYDSDGHEIMAVDIYVNPPRVDVFHGTPPAWSSFGNKTIWGGNEWVDDSPTRSDIEKRDKEITAYKNTLSAQQKENENKRTEAGKRLSAAIAAREKDENTLKTLRAGNADAADITRQEFRLLQAELREYGFRTEIAGYDALRLHTESRMLFADADSLRISPREARSLIEQAEKRQKDAQNADKKAADMLAEYERRKGILDTRLSELEKNGGAALAVLDAQQARLLGQQTRNDRAISEARNKLSSVTESLNTARNALTRAEQQLTQQKNTPDGKTIVSPEKFPGRSSTNHSIVVSGDPRFAGTIKITTSAVIDNRANLNYLLSHSGLDYKRNILNDRNPVVTEDVEGDKKIYNAEVAEWDKLRQRLLDARNKITSAESAVNSARNNLSARTNEQKHANDALNALLKEKENIRNQLSGINQKIAEEKRKQDELKATKDAINFTTEFLKSVSEKYGAKAEQLAREMAGQAKGKKIRNVEEALKTYEKYRADINKKINAKDRAAIAAALESVKLSDISSNLNRFSRGLGYAGKFTSLADWITEFGKAVRTENWRPLFVKTETIIAGNAATALVALVFSILTGSALGIIGYGLLMAVTGALIDESLVEKANKFWGIGVNACSSLF
modifications: Colicin attached to Pheromone peptide encoding Staphylococcus aureus AgrDII
Take B3: the inhibition of growth result in assay [6] is reported as “some inhibition effects”.

B4: Ph-SA4: Colicin Ia linked to the AgrDIV pheromone of S. aureus (protein)
chain: SDPVRITNPGAESLGYDSDGHEIMAVDIYVNPPRVDVFHGTPPAWSSFGNKTIWGGNEWVDDSPTRSDIEKRDKEITAYKNTLSAQQKENENKRTEAGKRLSAAIAAREKDENTLKTLRAGNADAADITRQEFRLLQAELREYGFRTEIAGYDALRLHTESRMLFADADSLRISPREARSLIEQAEKRQKDAQNADKKAADMLAEYERRKGILDTRLSELEKNGGAALAVLDAQQARLLGQQTRNDRAISEARNKLSSVTESLNTARNALTRAEQQLTQQKNTPDGKTIVSPEKFPGRSSTNHSIVVSGDPRFAGTIKITTSAVIDNRANLNYLLSHSGLDYKRNILNDRNPVVTEDVEGDKKIYNAEVAEWDKLRQRLLDARNKITSAESAVNSARNNLSARTNEQKHANDALNALLKEKENIRNQLSGINQKIAEEKRKQDELKATKDAINFTTEFLKSVSEKYGAKAEQLAREMAGQAKGKKIRNVEEALKTYEKYRADINKKINAKDRAAIAAALESVKLSDISSNLNRFSRGLGYAGKFTSLADWITEFGKAVRTENWRPLFVKTETIIAGNAATALVALVFSILTGSALGIIGYGLLMAVTGALIDESLVEKANKFWGIYSTCYFIM
modifications: Colicin attached to Pheromone peptide encoding Staphylococcus aureus AgrDIV
As for B4, the inhibition of growth entry in assay [6] is recorded as “best inhibitory effects”.

B5: Ph-SA3: Colicin Ia linked to the AgrDIII pheromone of S. aureus (protein)
chain: SDPVRITNPGAESLGYDSDGHEIMAVDIYVNPPRVDVFHGTPPAWSSFGNKTIWGGNEWVDDSPTRSDIEKRDKEITAYKNTLSAQQKENENKRTEAGKRLSAAIAAREKDENTLKTLRAGNADAADITRQEFRLLQAELREYGFRTEIAGYDALRLHTESRMLFADADSLRISPREARSLIEQAEKRQKDAQNADKKAADMLAEYERRKGILDTRLSELEKNGGAALAVLDAQQARLLGQQTRNDRAISEARNKLSSVTESLNTARNALTRAEQQLTQQKNTPDGKTIVSPEKFPGRSSTNHSIVVSGDPRFAGTIKITTSAVIDNRANLNYLLSHSGLDYKRNILNDRNPVVTEDVEGDKKIYNAEVAEWDKLRQRLLDARNKITSAESAVNSARNNLSARTNEQKHANDALNALLKEKENIRNQLSGINQKIAEEKRKQDELKATKDAINFTTEFLKSVSEKYGAKAEQLAREMAGQAKGKKIRNVEEALKTYEKYRADINKKINAKDRAAIAAALESVKLSDISSNLNRFSRGLGYAGKFTSLADWITEFGKAVRTENWRPLFVKTETIIAGNAATALVALVFSILTGSALGIIGYGLLMAVTGALIDESLVEKANKFWGIYINCDFLL
modifications: Colicin attached to Pheromone peptide encoding Staphylococcus aureus AgrDIII
B5: the inhibition of growth result in assay [6] is “some inhibition effects”.

For orientation: MIC50 means an inhibitory concentration at the 50% level, which refers to growth in some studies and to a panel of isolates in others. Broadly, the MIC90 is the lowest concentration that inhibits either 90% of growth or 90% of the strains tested, depending on the study. As a reminder, the MIC is the least concentration at which growth counts as inhibited.
